Source: patent publication US9573887B2, “Naphthalene derivative” (Daito Chemix Corporation, priority 2010, dated 2017)
Counter-ions that a name gives are not always drawn.

Each molecule was assayed against T1, Mouse VCP (Mus musculus, UniProt Q01853) (assay: ATPase activity of purified His-tagged VCP, [γ-32P]ATP, liberated phosphate by liquid scintillation). Details: compounds of Comparative Examples; determined in the same manner as the Examples.
T1 construct: histidine tag (N); made in house; host or cells: Sf-9 insect cells (baculovirus vector pVL1392)
T1 sequence (Q01853 whole entry): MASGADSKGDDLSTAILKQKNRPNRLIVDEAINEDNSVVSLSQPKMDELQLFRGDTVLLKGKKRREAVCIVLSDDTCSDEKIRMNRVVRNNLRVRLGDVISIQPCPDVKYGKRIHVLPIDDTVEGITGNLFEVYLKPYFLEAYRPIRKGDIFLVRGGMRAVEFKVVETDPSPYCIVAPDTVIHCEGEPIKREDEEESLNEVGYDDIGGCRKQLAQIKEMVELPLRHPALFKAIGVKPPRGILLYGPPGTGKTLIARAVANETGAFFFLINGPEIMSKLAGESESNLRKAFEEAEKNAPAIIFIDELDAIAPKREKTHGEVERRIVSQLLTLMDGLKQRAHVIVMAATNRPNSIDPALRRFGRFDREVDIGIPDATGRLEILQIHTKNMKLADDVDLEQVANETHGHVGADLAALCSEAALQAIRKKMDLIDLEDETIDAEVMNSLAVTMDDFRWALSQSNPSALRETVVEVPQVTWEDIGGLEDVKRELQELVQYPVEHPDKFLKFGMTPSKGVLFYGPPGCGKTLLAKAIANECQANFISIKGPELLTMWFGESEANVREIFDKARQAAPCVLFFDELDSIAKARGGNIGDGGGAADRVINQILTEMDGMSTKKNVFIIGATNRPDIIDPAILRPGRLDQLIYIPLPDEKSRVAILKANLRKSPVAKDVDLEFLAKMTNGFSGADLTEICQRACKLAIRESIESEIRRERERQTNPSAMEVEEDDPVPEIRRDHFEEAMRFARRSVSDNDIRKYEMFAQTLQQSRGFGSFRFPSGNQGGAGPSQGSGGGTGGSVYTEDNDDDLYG
Type: biochemical
Procedure: In one aspect, the effect of VCP regulators for regulating ATPase activity is determined, for example by the following exemplary assay. Mouse VCP cDNA (the amino acid sequence is completely identical among mouse, rat and human) is added with a DNA sequence corresponding to a histidine tag at the amino-terminal, subcloned into a baculovirus vector pVL1392 (BD Bioscience), and expressed in Sf-9 insect cells. The protein is purified with a nickel column. After the purification the concentration of the protein is adjusted to 0.25-0.5 μg/ml and the protein is stored in a solution containing 50 mM TrisCl pH 8.0, 5 mM EDTA, 10% glycerol, and 15 mM DTT at 4° C. 500 ng of the purified VCP is mixed with 100 μM [γ-^32P]ATP (18.5 GBq/mmol) and the test substance in 20 μL of ATPase buffer (20 mM HEPES (pH7.4), 50 mM KCl, 5 mM MgCl2, 15 mM DTT), and incubated at 37° C. for 10 minutes. The enzyme reaction is stopped with addition of 200 μL of an ice-cold solution containing 7% TCA and 1 mM K2HPO4. 50μ of a solution containing 3.75% ammonium molybdate and 0.02M tungstate silicic/3 N H2SO4 is added, followed by 300 μL of n-butylacetic acid, and then the liberated phosphate is extracted into the organic layer. The reaction tube is centrifuged for 5 minutes at 20,000 g to separate the aqueous layer and the organic layer, 200 μL of the organic layer is taken, and the beta ray radiated from the liberated phosphate is quantified with liquid scintillation counter. By measuring the ATPase activity in the presence of the test substance at various concentrations, ATPase inhibitory activity of the test substance is measured.
Mouse VCP cDNA was added with a DNA sequence corresponding to histidine tag at the amino-terminal, subcloned into a baculovirus vector pVL1392 (BD Bioscience), and expressed in Sf-9 insect cells. The protein was purified with a nickel column (GE Healthcare). The concentration of the protein was adjusted to 0.25-0.5 μg/ml and the protein was stored in a solution containing 50 mM TrisCl pH 8.0, 5 mM EDTA, 10% glycerol, and 15 mM DTT.
The ATPase activity was determined as follows. 500 ng of the purified VCP was mixed with 100 μM [γ-32P]ATP (18.5 GBq/mmol) and the test substance in 20 μL of ATPase buffer (20 mM HEPES (pH7.4), 50 mM KCl, 5 mM MgCl2, 15 mM DTT), and incubated at 37° C. for 10 minutes.
The enzyme reaction was stopped with addition of 200 μL of an ice-cold solution containing 7% TCA and 1 mM K2HPO4. 50μ of a solution containing 3.75% ammonium molybdate and 0.02M tungstate silicic/3 NH2SO4 was added, followed by 300 μL of n-butylacetic acid, and then the liberated phosphate was extracted into the organic layer. The reaction tube was centrifuged for 5 minutes at 20,000 g to separate the aqueous layer and the organic layer, 200 μL of the organic layer was taken, and the beta ray radiated from the liberated phosphate was quantified with liquid scintillation counter.
By measuring the ATPase activity in the presence of the test substance at various concentrations, ATPase inhibitory activity of the test substance was measured. IC50 of the each test substance was calculated by applying the measured values to the equation below using GraphPad Prism (GraphPad Software).
For `Nc1c(-c2ccccc2)cc(S(=O)(=O)O)c2ccccc12` [Example 26, sodium salt], the IC50 was > 10000 nM. `N#Cc1cc(/N=N/c2ccc(-c3ccccc3)nc2)c(N)c2ccccc12` [Example 12, sodium salt] was tested, and the IC50 was > 10000 nM. With `O=[N+]([O-])c1ccc(-c2cccc3c2sc2ccccc23)nc1` [Example 29, sodium salt] the IC50 was > 100000 nM.

Same assay, conditions: compounds of Examples; ATPase inhibitory activity; 500 ng VCP, 100 μM ATP, 37° C., 10 minutes
Work on `Nc1c(/N=N/c2ccc(-c3ccccc3OCCCCCCO)nc2)cc(S(=O)(=O)O)c2ccccc12` [Example 64, 4-amino-3-{6-[2-(6-hydroxyhexyloxy)phenyl]pyridine-3-ylazo}naphthalene-1-sulfonic acid sodium salt] yielded an IC50 of 324 nM. `Nc1c(/N=N/c2cccc(Br)c2)cc(S(=O)(=O)O)c2ccccc12` [Example 109, 4-amino-3-(3-bromophenylazo)naphthalene-1-sulfonic acid sodium salt] was tested, and the IC50 was 856 nM. Work on `Nc1c(/N=N/c2ccccc2F)cc(S(=O)(=O)O)c2ccccc12` [Example 94, 4-amino-3-(2-fluorophenylazo)naphthalene-1-sulfonic acid sodium salt] yielded an IC50 of 1110 nM. Molecule `CC(=O)c1cccc(-c2ccc(/N=N/c3cc(S(=O)(=O)O)c4ccccc4c3N)cn2)c1` [Example 15, 3-[6-(3-acetylphenyl)pyridine-3-ylazo]-4-aminonaphthalene-1-sulfonic acid sodium salt] has an IC50 of 189 nM. For `Nc1c(/N=N/c2ccc(Cl)cc2Br)cc(S(=O)(=O)O)c2ccccc12` [Example 117, 4-amino-3-(2-bromo-4-chlorophenylazo)naphthalene-1-sulfonic acid sodium salt], the IC50 was 230 nM. With `Cc1ccc(-c2cccc(Cl)c2)c(-c2ccc(/N=N/c3cc(S(=O)(=O)O)c4ccccc4c3N)cn2)c1` [Example 75, 4-amino-3-[6-(3′-chloro-4-methylbiphenyl-2-yl)pyridine-3-ylazo]naphthalene-1-sulfonic acid sodium salt] the IC50 was 924 nM. Work on `Nc1c(/N=N/c2ccc(OCc3ccccn3)cc2)cc(S(=O)(=O)O)c2ccccc12` [Example 136, 4-amino-3-[4-(pyridine-2-ylmethoxy)phenylazo]naphthalene-1-sulfonic acid sodium salt] yielded an IC50 of 601 nM. `Nc1c(/N=N/c2ccc(Cl)cc2Cl)cc(S(=O)(=O)O)c2ccccc12` [Example 111, 4-amino-3-(2,4-dichlorophenylazo)naphthalene-1-sulfonic acid sodium salt] showed an IC50 of 244 nM. Work on `Cc1ccc(F)cc1-c1ccc(/N=N/c2cc(S(=O)(=O)O)c3ccccc3c2N)cn1` [Example 58, 4-amino-3-[6-(5-fluoro-2-methylphenyl)pyridine-3-ylazo]naphthalene-1-sulfonic acid sodium salt] yielded an IC50 of 320 nM. `Cc1ccc(-c2ccccc2)c(-c2ccc(/N=N/c3cc(S(=O)(=O)O)c4ccccc4c3N)cn2)c1` [Example 71, 4-amino-3-[6-(4-methylbiphenyl-2-yl)pyridine-3-ylazo]naphthalene-1-sulfonic acid sodium salt] gave an IC50 of 257 nM. In the case of `Nc1c(/N=N/c2ccc(C(=O)Nc3ccccc3)cc2)cc(S(=O)(=O)O)c2ccccc12` [Example 129, 4-amino-3-(4-phenylcarbamoylphenylazo)naphthalene-1-sulfonic acid sodium salt], the IC50 is reported as 1900 nM. With `Nc1c(/N=N/c2ccc(-c3ccccc3OCCCNC(=O)c3cccnc3Cl)nc2)cc(S(=O)(=O)O)c2ccccc12` [Example 69, 4-amino-3-[6-(2-{3-[(2-chloropyridine-3-carbonyl)amino]propoxy}phenyl)pyridine-3-ylazo]naphthalene-1-sulfonic acid sodium salt] the IC50 was 90 nM. Molecule `Cc1cc(F)ccc1-c1ncc(/N=N/c2cc(S(=O)(=O)O)c3ccccc3c2N)cc1C` [Example 79, 4-amino-3-[6-(4-fluoro-2-methylphenyl)-5-methylpyridine-3-ylazo]naphthalene-1-sulfonic acid sodium salt] has an IC50 of 798 nM. With `Nc1c(/N=N/c2ccc(-c3ccsc3)nc2)cc(S(=O)(=O)O)c2ccccc12` [Example 18, 4-amino-3-(6-thiophene-3-ylpyridine-3-ylazo)naphthalene-1-sulfonic acid sodium salt] the IC50 was 163 nM. With `Nc1c(/N=N/c2cccc([N+](=O)[O-])c2)cc(S(=O)(=O)O)c2ccccc12` [Example 96, 4-amino-3-(3-nitrophenylazo)naphthalene-1-sulfonic acid sodium salt] the IC50 was 1630 nM. Work on `Nc1c(/N=N/c2ccc(-c3ccc(Cl)cc3Cl)nc2)cc(S(=O)(=O)O)c2ccccc12` [Example 19, 4-amino-3-[6-(2,4-dichlorophenyl)pyridine-3-ylazo]naphthalene-1-sulfonic acid sodium salt] yielded an IC50 of 178 nM. In the case of `Nc1c(/N=N/c2cccc(OCc3ccccn3)c2)cc(S(=O)(=O)O)c2ccccc12` [Example 137, 4-amino-3-[3-(pyridine-2-ylmethoxy)phenylazo]naphthalene-1-sulfonic acid sodium salt], the IC50 is reported as 610 nM. For `Cc1cc(C)cc(-c2ccc(/N=N/c3cc(S(=O)(=O)O)c4ccccc4c3N)cn2)c1` [Example 35, 4-amino-3-[6-(3,5-dimethylphenyl)pyridine-3-ylazo]naphthalene-1-sulfonic acid sodium salt], the IC50 was 632 nM. In the case of `Cc1cccc(-c2ccc(/N=N/c3cc(S(=O)(=O)O)c4ccccc4c3N)cn2)c1` [Example 9, 4-amino-3-(6-m-tolylpyridine-3-ylazo)naphthalene-1-sulfonic acid sodium salt], the IC50 is reported as 188 nM. Molecule `Nc1c(/N=N/c2ccccc2OCc2ccccn2)cc(S(=O)(=O)O)c2ccccc12` [Example 140, 4-amino-3-[2-(pyridine-2-ylmethoxy)phenylazo]naphthalene-1-sulfonic acid sodium salt] has an IC50 of 596 nM. Work on `Cc1cccc(-c2ccc(/N=N/c3cc(S(=O)(=O)O)c4ccccc4c3N)cn2)c1C` [Example 33, 4-amino-3-[6-(2,3-dimethylphenyl)pyridine-3-ylazo]naphthalene-1-sulfonic acid sodium salt] yielded an IC50 of 301 nM. `CC(C)Oc1ccc(-c2ccc(/N=N/c3cc(S(=O)(=O)O)c4ccccc4c3N)cn2)cc1` [Example 28, 4-amino-3-[6-(4-isopropoxyphenyl)pyridine-3-ylazo]naphthalene-1-sulfonic acid sodium salt] gave an IC50 of 416 nM. `N#Cc1ccc(-c2ccc(/N=N/c3cc(S(=O)(=O)O)c4ccccc4c3N)cn2)cc1` [Example 45, 4-amino-3-[6-(4-cyanophenyl)pyridine-3-ylazo]naphthalene-1-sulfonic acid sodium salt] gave an IC50 of 524 nM. `Nc1c(/N=N/c2ccc(C(F)(F)F)cc2)cc(S(=O)(=O)O)c2ccccc12` [Example 95, 4-amino-3-(4-trifluoromethylphenylazo)naphthalene-1-sulfonic acid sodium salt] showed an IC50 of 393 nM. `Nc1c(/N=N/c2cnc(Cl)c(-c3ccccc3)c2)cc(S(=O)(=O)O)c2ccccc12` [Example 88, 4-amino-3-(6-chloro-5-phenylpyridine-3-ylazo)naphthalene-1-sulfonic acid sodium salt] gave an IC50 of 348 nM. Molecule `Cc1ccc(-c2ccc(/N=N/c3cc(S(=O)(=O)O)c4ccccc4c3N)cc2)cc1` [Example 125, 4-amino-3-(4′-methylbiphenyl-4-ylazo)naphthalene-1-sulfonic acid sodium salt] has an IC50 of 417 nM. For `Nc1c(/N=N/c2cccc(Cl)c2)cc(S(=O)(=O)O)c2ccccc12` [Example 99, 4-amino-3-(3-chlorophenylazo)naphthalene-1-sulfonic acid sodium salt], the IC50 was 1390 nM.
